Test results taken from publication PMC4712559, “Isolation and characterization of Bradykinin potentiating peptides from Agkistrodon bilineatus venom” (Proteome Science, 2016).
Where a SMILES comes first, the peptide text is derived from it.

Biological target: T1, Angiotensin converting enzyme from rabbit lung (Oryctolagus cuniculus, UniProt P12822)
T1 construct: Angiotensin converting enzyme from rabbit lung (A6778- 0.25 UN), was obtained from Sigma; purchased Sigma A6778; host or cells: rabbit lung tissue
T1 sequence (P12822 34-1310): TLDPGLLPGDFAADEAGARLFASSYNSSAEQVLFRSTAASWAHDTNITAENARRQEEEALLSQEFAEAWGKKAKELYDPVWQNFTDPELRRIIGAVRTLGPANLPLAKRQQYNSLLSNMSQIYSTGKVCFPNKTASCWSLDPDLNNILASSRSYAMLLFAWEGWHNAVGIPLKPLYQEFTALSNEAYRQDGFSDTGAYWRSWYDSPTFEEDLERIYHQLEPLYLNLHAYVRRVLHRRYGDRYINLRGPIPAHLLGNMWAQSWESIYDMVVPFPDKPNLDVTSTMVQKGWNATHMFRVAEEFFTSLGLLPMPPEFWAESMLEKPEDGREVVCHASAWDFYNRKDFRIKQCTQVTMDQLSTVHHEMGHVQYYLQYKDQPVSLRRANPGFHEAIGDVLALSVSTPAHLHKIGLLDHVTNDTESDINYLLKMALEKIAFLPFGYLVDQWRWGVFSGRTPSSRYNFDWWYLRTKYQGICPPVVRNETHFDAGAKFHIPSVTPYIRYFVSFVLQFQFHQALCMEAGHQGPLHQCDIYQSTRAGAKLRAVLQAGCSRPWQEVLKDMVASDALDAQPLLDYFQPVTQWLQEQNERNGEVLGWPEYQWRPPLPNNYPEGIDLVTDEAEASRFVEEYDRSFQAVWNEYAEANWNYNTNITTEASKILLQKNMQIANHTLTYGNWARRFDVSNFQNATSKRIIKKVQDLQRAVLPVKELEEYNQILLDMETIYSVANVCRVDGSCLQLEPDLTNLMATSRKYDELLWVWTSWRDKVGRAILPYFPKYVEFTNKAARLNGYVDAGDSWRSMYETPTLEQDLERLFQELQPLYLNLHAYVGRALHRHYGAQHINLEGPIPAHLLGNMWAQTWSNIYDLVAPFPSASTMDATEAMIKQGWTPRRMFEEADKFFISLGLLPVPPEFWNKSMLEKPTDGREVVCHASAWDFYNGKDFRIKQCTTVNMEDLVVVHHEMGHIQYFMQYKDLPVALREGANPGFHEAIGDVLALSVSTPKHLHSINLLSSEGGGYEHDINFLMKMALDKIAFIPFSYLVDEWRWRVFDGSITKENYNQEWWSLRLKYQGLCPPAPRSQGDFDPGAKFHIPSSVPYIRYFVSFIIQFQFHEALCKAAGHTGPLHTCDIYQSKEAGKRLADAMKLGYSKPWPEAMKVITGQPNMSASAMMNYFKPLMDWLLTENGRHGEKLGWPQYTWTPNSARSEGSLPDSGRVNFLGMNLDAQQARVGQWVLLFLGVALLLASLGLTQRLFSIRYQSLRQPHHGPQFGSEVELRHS
Experiment: ACE inhibition by synthetic BPPs, fluorescence energy transfer assay with Abz-Phe-Arg-Lys(Dnp)-Pro-OH
Assay type: biochemical
Conditions: for ACE inhibition / IC 50, in words: qualitative comparison of the four synthesized peptides; for IC50: rabbit lung ACE, FRET substrate Abz-Phe-Arg-Lys(Dnp)-Pro-OH, Tris/NaCl/ZnCl2 buffer, pH 7.0, 10 min incubation at room temperature, λex 320 nm, λem 420 nm, 5 min, six serial dilutions 0.500-0.002 mM, 5 μl of dilution in assay, repeated five times
Method: The snake venom of Agkistrodon bilineatus bilineatus, was obtained from Venom Supplies, Australia, and was placed at -20° till further use. The venom was collected from the snakes bred in the farms of Venom Supplies, Australia. All the solvents used were of HPLC grade and were obtained from Merck. The substrate Abz-Phe-Arg-Lys (Dnp)-Pro-OH for angiotensin converting enzyme was obtained from BACHEM. Angiotensin converting enzyme from rabbit lung (A6778- 0.25 UN), was obtained from Sigma. The synthesized peptides ZLWPRPQIPP, ZQWAQGRAPHPP, ZSAPGNEAIPP, ZNWPHPQIPP were purchased from China Peptide company, Shanghai, China. The peptides were 95 % pure, and were kept at -20° till use. The N-terminus of these synthetic peptide is pyroglutame (represented by Z), while the C-terminus is an amino acid with free carboxylic group.
ACE activities in the presence of venom peptides were determined by a fluorescence energy transfer assay using Abz-Phe-Arg-Lys (Dnp)-Pro-OH as a substrate. 1 mg of the substrate was weighed and dissolved in 1 ml DMSO. The exact concentration of the substrate was determined by taking four different volumes of the substrate stock solution, and constructing a standard curve spectrophometrically at 365 nm, using the molar extinction coefficient of the Dnp group ([…] = 17,300 M^−1 cm^−1), according to the Beer’s Lambert Law (A = εDnp x l x c). A stock solution of the enzyme was prepared by suspending 0.25 UN of ACE in 250 μl of the assay buffer (12.10 g Tris-base, 2.92 g NaCl and 1.36 mg ZnCl2 in 1 l of deionised water, pH to 7.0 adjusted with HCl).
In order to determine the IC 50 values of the synthesized peptides, a stock solution (10 mM) of each was prepared in the assay buffer. From the stock solutions, six serial dilutions were prepared for each peptide. The concentrations of the six dilutions were as follows, 0.500 mM, 0.167 mM, 0.056 mM, 0.019 mM, 0.006 mM and 0.002 mM respectively. In the final assay, 85 μl of the assay buffer, 2 μl of the enzyme stock solution, and 5 μl of the dilute peptide solution were added. The mixture was incubated for 10 min at room temperature. The reaction was started by adding 10 μl of the working solution of the substrate (20 μl of the stock +280 μl of the assay buffer). The same procedure was adopted using 5 μl of venom fractions instead of the synthetic peptides. Fluorescence measurements were made at λex = 320 nm and at λem = 420 nm, for 5 min each. These experiments were repeated five times to ensure accuracy of the results.

CC[C@H](C)[C@H](NC(=O)[C@H](CCC(N)=O)NC(=O)[C@@H]1CCCN1C(=O)[C@H](CCCNC(=N)N)NC(=O)[C@@H]1CCCN1C(=O)[C@H](Cc1c[nH]c2ccccc12)NC(=O)[C@H](CC(C)C)NC(=O)[C@@H]1CCC(=O)N1)C(=O)N1CCC[C@H]1C(=O)N1CCC[C@H]1C(=O)O [Inhibitor 1 (P6)] (HELM PEPTIDE1{[Glp].L.W.P.R.P.Q.I.P.P}$$$$V2.0)
ACE inhibition / IC 50, in words (listed as ZLWPRPQXPP): strongest inhibitors | ACE inhibition / IC 50, in words (listed as peptide 6): low IC 50 values | IC50: 0.64 µM

C[C@H](NC(=O)[C@H](Cc1c[nH]c2ccccc12)NC(=O)[C@H](CCC(N)=O)NC(=O)[C@@H]1CCC(=O)N1)C(=O)N[C@@H](CCC(N)=O)C(=O)NCC(=O)N[C@@H](CCCNC(=N)N)C(=O)N[C@@H](C)C(=O)N1CCC[C@H]1C(=O)N[C@@H](Cc1c[nH]cn1)C(=O)N1CCC[C@H]1C(=O)N1CCC[C@H]1C(=O)O [Inhibitor 2 (P7)] (HELM PEPTIDE1{[Glp].Q.W.A.Q.G.R.A.P.H.P.P}$$$$V2.0)
ACE inhibition / IC 50, in words (listed as ZQWAQGRAPHPP): low IC 50 value | ACE inhibition / IC 50, in words (listed as peptide 7): low IC 50 values | IC50: 3.63 µM

CC[C@H](C)[C@H](NC(=O)[C@H](C)NC(=O)[C@H](CCC(=O)O)NC(=O)[C@H](CC(N)=O)NC(=O)CNC(=O)[C@@H]1CCCN1C(=O)[C@H](C)NC(=O)[C@H](CO)NC(=O)[C@@H]1CCC(=O)N1)C(=O)N1CCC[C@H]1C(=O)N1CCC[C@H]1C(=O)O [Inhibitor 3 (P5)] (HELM PEPTIDE1{[Glp].S.A.P.G.N.E.A.I.P.P}$$$$V2.0)
ACE inhibition / IC 50, in words: much higher value | IC50: 30 µM

CC[C@H](C)[C@H](NC(=O)[C@H](CCC(N)=O)NC(=O)[C@@H]1CCCN1C(=O)[C@H](Cc1c[nH]cn1)NC(=O)[C@@H]1CCCN1C(=O)[C@H](Cc1c[nH]c2ccccc12)NC(=O)[C@H](CC(N)=O)NC(=O)[C@@H]1CCC(=O)N1)C(=O)N1CCC[C@H]1C(=O)N1CCC[C@H]1C(=O)O [Inhibitor 4 (P3)] (HELM PEPTIDE1{[Glp].N.W.P.H.P.Q.I.P.P}$$$$V2.0)
ACE inhibition / IC 50, in words (listed as ZNWPHPQXPP): strongest inhibitors | ACE inhibition / IC 50, in words (listed as peptide 5): low IC 50 values | IC50: 0.76 µM
